In ChEMBL document CHEMBL1201862, “PubChem BioAssay data set” (2004):
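Each compound was tested at five concentrations against cells in 96-well plates for 48 hours. At the GI50, growth is halved.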 The source made the active and inactive calls. Rule as the data show it: active = GI50 up to about 1.1 µM and inactive = higher.

Tests used:
Assay in all cases: NCI anticancer screen, dose series, 48 h
786-0 = test system: 786-0
CCRF-CEM = test system: CCRF-CEM
COLO 205 = test system: COLO 205
HOP-62 = test system: HOP-62
HT-29 = test system: HT-29
LOX IMVI = test system: LOX IMVI
MOLT-4 = test system: MOLT-4
NCI-H23 = test system: NCI-H23
OVCAR-3 = test system: OVCAR-3
OVCAR-5 = test system: OVCAR-5
OVCAR-8 = test system: OVCAR-8
SR = test system: SR
UACC-62 = test system: UACC-62
EKVX = test system: EKVX
KM12 = test system: KM12
RXF 393 = test system: RXF 393
MDA-MB-435 = test system: MDA-MB-435
T47D = test system: T47D
NCI/ADR-RES = test system: NCI/ADR-RES

Measured: GI50

CCCCCCCCCCCCCCCCCC(=O)O[C@H](COC(=O)CCCCCCCCCCC)COC(=O)CCCCCCCCCCCCCCC
inactive: 786-0 > 100 µM | CCRF-CEM > 100 µM | COLO 205 > 100 µM | HOP-62 > 100 µM | HT-29 > 100 µM | LOX IMVI > 100 µM | MOLT-4 > 100 µM | NCI-H23 > 100 µM | OVCAR-3 > 100 µM | OVCAR-5 > 100 µM | OVCAR-8 > 100 µM | SR > 100 µM | UACC-62 > 100 µM

C=C(C)C1Cc2c(cc(OC)c3c(=O)c4ccccc4n(C)c23)O1 (stereo not drawn)
inactive: 786-0 > 100 µM | CCRF-CEM > 100 µM | COLO 205 > 100 µM | EKVX > 100 µM | HOP-62 > 100 µM | HT-29 > 100 µM | KM12 > 100 µM | LOX IMVI 47.3 µM | NCI-H23 > 100 µM | OVCAR-3 > 100 µM | OVCAR-5 > 100 µM | OVCAR-8 > 100 µM | RXF 393 > 100 µM | SR > 100 µM | UACC-62 37.8 µM

O=C(c1ccc(Cl)cc1)c1ccc(OCCCOc2ccc(C(=O)c3ccc(Cl)cc3)cc2Cl)c(Cl)c1
inactive: 786-0 > 100 µM | CCRF-CEM > 100 µM | COLO 205 > 100 µM | EKVX > 100 µM | HOP-62 > 100 µM | HT-29 > 100 µM | KM12 > 100 µM | LOX IMVI > 100 µM | MOLT-4 > 100 µM | NCI-H23 > 100 µM | OVCAR-3 > 100 µM | OVCAR-5 > 100 µM | OVCAR-8 > 100 µM | RXF 393 > 100 µM | SR > 100 µM | UACC-62 > 100 µM

CCOC(=O)C(=CNC(=S)c1ccncc1)C(=O)OCC
inactive: 786-0 > 100 µM | CCRF-CEM > 100 µM | COLO 205 > 100 µM | EKVX > 100 µM | HOP-62 > 100 µM | KM12 > 100 µM | LOX IMVI > 100 µM | MDA-MB-435 > 100 µM | MOLT-4 > 100 µM | NCI-H23 > 100 µM | OVCAR-3 76.2 µM | OVCAR-5 > 100 µM | RXF 393 > 100 µM | SR > 100 µM | T47D > 100 µM | UACC-62 > 100 µM

C/C(=N\N=C(N)N)c1sc(-c2nc(C)c(/C(C)=N/N=C(N)N)s2)nc1C
inactive: 786-0 > 47.9 µM | CCRF-CEM > 60.7 µM | COLO 205 > 52.5 µM | EKVX > 100 µM | HOP-62 > 100 µM | HT-29 > 66.8 µM | KM12 > 36.2 µM | LOX IMVI > 42.5 µM | MOLT-4 > 57.9 µM | NCI-H23 > 100 µM | OVCAR-3 > 85.5 µM | OVCAR-5 > 100 µM | OVCAR-8 > 100 µM | RXF 393 > 45.4 µM | SR > 45.6 µM | UACC-62 > 100 µM

COC(=O)C(C(=O)C(=O)Nc1ccc(OC)cc1[N+](=O)[O-])c1nc2cc(C)c(C)cc2nc1O (stereo not drawn)
inactive: 786-0 > 100 µM | CCRF-CEM > 100 µM | COLO 205 > 100 µM | EKVX 74.6 µM | HOP-62 > 100 µM | HT-29 > 100 µM | LOX IMVI > 100 µM | NCI-H23 > 100 µM | OVCAR-3 > 100 µM | OVCAR-8 > 100 µM | RXF 393 > 100 µM | SR > 100 µM | UACC-62 > 100 µM

COc1cc(CC2c3cc(OC)c(OC)cc3CCN2C)ccc1O (stereo not drawn)
inactive: 786-0 > 100 µM | CCRF-CEM > 100 µM | EKVX > 100 µM | HOP-62 > 100 µM | HT-29 > 100 µM | KM12 > 100 µM | MOLT-4 > 100 µM | NCI-H23 > 100 µM | OVCAR-3 > 100 µM | OVCAR-5 > 100 µM | OVCAR-8 > 100 µM

CSc1n[n+]2c(s1)SCCC2
inactive: 786-0 > 100 µM | CCRF-CEM > 100 µM | COLO 205 20.2 µM | HOP-62 95.5 µM | HT-29 > 100 µM | KM12 44.7 µM | LOX IMVI > 100 µM | MOLT-4 > 100 µM | NCI-H23 > 100 µM | OVCAR-3 > 100 µM | OVCAR-5 > 100 µM | OVCAR-8 > 100 µM | RXF 393 > 100 µM | SR > 100 µM | UACC-62 > 100 µM

NS(=O)(=O)c1ccc(Nc2c3ccccc3nc3c(C(=O)N4CCN(CCO)CC4)cccc23)cc1
inactive: 786-0 > 100 µM | CCRF-CEM 95.3 µM | COLO 205 > 100 µM | EKVX > 100 µM | HOP-62 > 100 µM | HT-29 71.8 µM | KM12 93.5 µM | LOX IMVI 92.7 µM | MOLT-4 40.2 µM | NCI-H23 > 100 µM | OVCAR-3 > 100 µM | OVCAR-5 > 100 µM | OVCAR-8 > 100 µM | RXF 393 > 100 µM | SR 74.1 µM | UACC-62 > 100 µM

Cc1cc2oc(=O)[nH]c(=S)c2c(C)c1C
inactive: 786-0 > 100 µM | CCRF-CEM > 100 µM | COLO 205 > 100 µM | EKVX 48.2 µM | HOP-62 > 100 µM | HT-29 > 100 µM | KM12 > 100 µM | LOX IMVI > 100 µM | MOLT-4 > 100 µM | NCI-H23 > 100 µM | OVCAR-3 > 100 µM | OVCAR-8 > 100 µM | RXF 393 > 100 µM | SR > 100 µM | UACC-62 > 100 µM

CCCCCCCCCCCCCCCCOCC(CN(C)CCN(C)C)OCCCCCCCCCCCCCCCC (stereo not drawn)
inactive: 786-0 > 100 µM | CCRF-CEM > 100 µM | COLO 205 > 100 µM | EKVX > 100 µM | HOP-62 > 100 µM | HT-29 > 100 µM | KM12 > 100 µM | LOX IMVI > 100 µM | MOLT-4 > 100 µM | NCI-H23 > 100 µM | OVCAR-3 > 100 µM | OVCAR-5 > 100 µM | OVCAR-8 > 100 µM | RXF 393 > 100 µM | SR > 100 µM | UACC-62 > 100 µM

O[C@]12c3ccccc3C1CCCC2N1CCOCC1 (stereo partly drawn)
inactive: 786-0 > 100 µM | CCRF-CEM > 100 µM | COLO 205 > 100 µM | EKVX > 100 µM | HOP-62 > 100 µM | HT-29 > 100 µM | KM12 > 100 µM | LOX IMVI > 100 µM | MOLT-4 > 100 µM | NCI-H23 > 100 µM | OVCAR-8 > 100 µM | RXF 393 > 100 µM | SR > 10 µM | UACC-62 > 100 µM

CN(CCc1ccccn1)/[N+]([O-])=N/O.CNCCc1ccccn1
inactive: 786-0 > 100 µM | CCRF-CEM > 100 µM | COLO 205 > 100 µM | EKVX > 100 µM | HOP-62 > 100 µM | HT-29 > 100 µM | KM12 > 100 µM | MOLT-4 > 100 µM | NCI-H23 > 100 µM | OVCAR-3 > 100 µM | OVCAR-5 > 100 µM | OVCAR-8 > 100 µM | RXF 393 > 100 µM | SR > 100 µM | UACC-62 > 100 µM

Clc1ccc(-n2nnc(C3=NCCN3)c2-c2ccccc2)cc1
inactive: 786-0 > 100 µM | CCRF-CEM > 100 µM | COLO 205 > 100 µM | EKVX > 100 µM | HOP-62 > 100 µM | HT-29 > 100 µM | KM12 > 100 µM | LOX IMVI > 100 µM | MOLT-4 78.5 µM | NCI-H23 > 100 µM | OVCAR-3 > 100 µM | OVCAR-5 > 100 µM | OVCAR-8 > 100 µM | RXF 393 > 100 µM | SR > 100 µM | UACC-62 > 100 µM

COc1cc2c(cc1OC)[C@H]1C(COC(=O)Nc3ccccc3)CN1CC2 (stereo partly drawn)
inactive: 786-0 > 100 µM | CCRF-CEM > 100 µM | COLO 205 > 100 µM | HOP-62 > 100 µM | HT-29 74.5 µM | KM12 > 100 µM | LOX IMVI 57.9 µM | MOLT-4 95.5 µM | NCI-H23 > 100 µM | OVCAR-3 > 100 µM | OVCAR-5 > 100 µM | OVCAR-8 > 100 µM | RXF 393 58.5 µM | SR 75.3 µM | UACC-62 > 100 µM

CCOP(=O)(OCC)C(Nc1ccc(Cl)cc1)c1ccc(F)cc1 (stereo not drawn)
inactive: 786-0 19.3 µM | CCRF-CEM 29.5 µM | COLO 205 29.4 µM | EKVX 29.2 µM | HOP-62 19 µM | HT-29 22 µM | KM12 31 µM | LOX IMVI 15.7 µM | MDA-MB-435 15.7 µM | MOLT-4 23.1 µM | NCI-H23 16.3 µM | NCI/ADR-RES 22.8 µM | OVCAR-3 29.5 µM | OVCAR-8 28.8 µM | RXF 393 21.2 µM | SR 40.8 µM | T47D 16.6 µM | UACC-62 4.7 µM

COc1ccc(NC(=O)CC(=O)N2N=C(N(c3ccccc3)c3ccccc3)CC2c2ccccc2)cc1 (stereo not drawn)
inactive: 786-0 > 100 µM | CCRF-CEM > 100 µM | COLO 205 > 100 µM | EKVX > 100 µM | HOP-62 > 100 µM | HT-29 > 100 µM | KM12 > 100 µM | LOX IMVI > 100 µM | MDA-MB-435 > 100 µM | MOLT-4 > 100 µM | NCI-H23 > 100 µM | NCI/ADR-RES > 100 µM | OVCAR-3 > 100 µM | OVCAR-5 > 100 µM | OVCAR-8 > 100 µM | RXF 393 > 100 µM | T47D > 100 µM | UACC-62 > 100 µM
